In the case of `O=C1c2ccccc2C(=O)c2c1cccc2N1CCNCC1`, the melting point is reported as 190 °C. For `CCOC(=O)C1CCC(Sc2ccc(F)cc2)C(=O)C1` (stereo not drawn), the melting point was 96 to 97 °C. `O=C(O)C=CSc1c[nH]c2ccccc12` showed a melting point of 172 to 173 °C. `OCc1c(Cl)nc(C2CCCC2)n1Cc1ccccc1` gave a melting point of 102 to 103 °C. `Brc1ccccc1Sc1nc2ccccc2n2cncc12` gave a melting point of 191 to 192 °C. `CC(C)(C)c1cc(CCc2cc(F)cc(F)c2NC(=O)NC23CC4CC(CC(C4)C2)C3)cc(C(C)(C)C)c1O` showed a melting point of 218 to 220 °C. `CCC1(c2cc(NC(=O)c3c(OC)cccc3OC)no2)CCCCC1` showed a melting point of 179 to 181 °C. Work on `Cc1cc(O)c(S(=O)C23CC4CC(CC(C4)C2)C3)c(=O)o1` (stereo not drawn) yielded a melting point of 174 °C. With `CC(=O)Nc1ccc(OCC(O)CNC2CCc3ccccc3C2)cc1` (stereo not drawn) the melting point was 133 to 136 °C. With `CC[C@H](C1CC1)n1cc(Cl)nc(N2CCc3cc(OC)c(F)c(Cl)c32)c1=O` the melting point was 128 to 130 °C. In the case of `CCCN1CCN(c2ncc3c(=O)c(C(=O)O)cn(CC)c3n2)CC1`, the melting point is reported as 149 °C. Compound `CN(C(=O)CBr)c1ccc(Cl)cc1Cc1ccccc1` has a melting point of 78 °C. `CCOC(=O)c1cn(C2CCCCC2)c2cc(C#Cc3cc(Cc4cnc(N)nc4N)cc(OC)c3OC)ccc2c1=O` gave a melting point of 228 to 230 °C. Compound `COC(=O)CNC(=O)c1ncccc1S` has a melting point of 178 to 179 °C. `CCCc1cn(C(CC)C(=O)N(C)C)nc1-c1ccccc1` (stereo not drawn) gave a melting point of 63 to 65.5 °C. In the case of `O=C(O)CCCN1CCN(Cc2ccc3c(c2)-c2[nH]nc(-c4ccsc4)c2C3)CC1`, the melting point is reported as 195 to 198 °C. In the case of `O=C(O)C=Cc1ccc(CCc2ccncc2)cc1`, the melting point is reported as > 300 °C. Compound `CN1Cc2c(-c3noc(CN)n3)ncn2-c2sccc2C1=O` has a melting point of 181 to 183 °C. `CC(C)(CCNS(=O)(=O)c1ccc(Cl)cc1)CC(=O)O` gave a melting point of 107 to 108 °C. With `CCN(CC)S(=O)(=O)c1ccc(-c2cnc3[nH]c(CCc4cc(OC)ccn4)nc3c2)cc1` the melting point was 127 to 129 °C. In the case of `CCCc1nc(SC)c(C(O)(C(=O)O)c2ccccc2)n1Cc1ccc(-c2ccccc2S(=O)(=O)NC(=O)NCc2ccccc2)cc1` (stereo not drawn), the melting point is reported as 170 °C. `O=C1c2ccc(OCCO)cc2C(=O)c2cc3ccccc3cc21` showed a melting point of 209 °C. `N#Cc1ccc(N(CCOc2ccc(OCc3ccccc3)c(Br)c2)n2cnnc2)cc1` showed a melting point of 163 to 166 °C. With `CCNc1nc(C)c(-c2ccnc(Nc3ccc(N4CCOCC4)c(Cl)c3)n2)s1` the melting point was 273 to 274 °C. In the case of `CCOC(=O)OC1CCN(C(=O)OCC)Cc2c1nc1ccccc1c2C` (stereo not drawn), the melting point is reported as 40 °C. For `COCCN1C(=O)CCCc2cc(N)ccc21`, the melting point was 134 to 135 °C. With `CCC(C)(NC(=O)c1cc(Cl)cc(Cl)c1)C(=O)CCl` (stereo not drawn) the melting point was 159 to 161 °C. For `O=C1NC(C2CCCCC2)C1O` (stereo not drawn), the melting point was 140 °C. Compound `CCCCCCCCCCCCCCCCOC[C@H]1CCO[C@H](c2ccccc2)O1` has a melting point of 51 to 54 °C. `Cn1c(C(F)(F)F)cc(=O)n(-c2cc(OC3CC=CNC3=O)c(Cl)cc2F)c1=O` (stereo not drawn) showed a melting point of 91 °C. With `Cc1nc(-c2cn(Cc3ccc(F)cc3)nn2)sc1C(=O)NCc1cccnc1` the melting point was 212 to 213 °C. In the case of `Cc1nnc2n1-c1ccc(C#CCN3C(=O)CCc4ccccc43)cc1C(c1ccccc1F)=NC2`, the melting point is reported as 236 to 239 °C. With `COc1cc2c(cc1OC)C1(CCN(CCc3ccc([N+](=O)[O-])cc3)CC1)N(Cc1ccc([N+](=O)[O-])cc1)CC2=O` the melting point was 174 to 177 °C. Work on `O=c1c(Br)c(OCc2ccccc2)ccn1Cc1cccc(C(F)(F)F)c1` yielded a melting point of 182 °C. Compound `O=C(Nc1ccc(Br)cn1)C1=C(O)c2ccccc2N(c2ccccc2)C1` has a melting point of 153 to 154 °C. With `CC(=O)Nc1nc2c(s1)-c1c(cnn1-c1ccc(C(=O)N3CCC(NC(=O)Cc4ccccc4)CC3)cc1)CC2` the melting point was 271 to 272 °C. With `Cc1nc2c(-c3cccc(N4CCN(C)CC4)c3)cnn2c(N)c1-c1ccc(F)cc1` the melting point was 204 to 206 °C. In the case of `Cc1cccc(N2C(=O)C(=NO)c3ccccc32)c1C`, the melting point is reported as 215 to 216 °C.
